Assay [1] concerns Candida albicans ATCC 10231. Description: MIC50 growth inhibition assay of compositions (OD600), Example 12. The assay is classed as cell-based. To be noted: concentration giving 50% growth inhibition. How it is done: Efficacy of the compositions was determined using Minimum Inhibitory Concentration assays, and the concentration of active compound giving 50% growth inhibition of the indicator organism was reported (MIC50). The assay was performed in well plates with two (Müller-Hinton medium) or three parallel (M19-medium) cell cultures for each condition.
Cell Culture Medium: Müller-Hinton and M19 without NaCl.
Indicator Organism: Candida albicans ATCC 10231
Stock Solutions of the Active Compounds and Control: • Amphotericin B (USP): vacuum dried powder was dissolved in DMSO to 2.5 mg/mL giving a final concentration after inoculation of 2.5 μg/mL in the well with the highest concentration. • compound 1A (custom made): powder was dissolved in DMSO to 2.5 mg/mL giving a final concentration after inoculation of 2.5 μg/ml compound 1A in the well with the highest concentration. It is assumed that the batch is 70% pure. • Example 3 composition: the formulation was a suspension with 18 mg/mL nanoparticles. The suspension was diluted in a medium and C. albicans inoculum to a final concentration of 5 μg/mL of compound 1A and 130 μg/mL of […]. From this solution 10 dilutions were prepared giving 0.009 μg/ml compound 1A in the lowest concentration. • Empty poly(ethylbutyl cyanoacrylate) particles: empty poly(ethylbutyl cyanoacrylate) particles were used as a reference. The empty poly(ethylbutyl cyanoacrylate) was produced in the same manner as those in Examples 2 and 3, with the exception that they were prepared at pH 1, with vanillin concentration of 10% (w/w), and. The particles were diluted in the same manner as Example 3. The highest poly(ethylbutyl cyanoacrylate) concentration tested was 130 μg/mL.
Growth measurements were performed at OD600.

Another assay deals with C. glabrata strains. Description: MFC determination. The assay is classed as cell-based. The arrangement: MFC: unit not given beside the values. To be noted: for MFC Range: C. glabrata strains; for MFC50 / MFC90: C. glabrata; for MFC50: kills 50% of strains; for MFC90: kills 90% of strains; for MFC: individual C. glabrata strain with elevated MICs to non-polyene comparators (Table 22).

For another assay, the system named is C. parapsilosis. The assay is described as follows: MIC testing (CLSI M27-A3). As to conditions: for MIC Range: C. parapsilosis strains; for MIC50 / MIC90: C. parapsilosis; for MIC50: inhibits 50% of strains; for MIC90: inhibits 90% of strains; for MIC: individual C. parapsilosis strain with elevated MICs to non-polyene comparators (Table 22). The assay is classed as cell-based. The arrangement: MIC: unit not given beside the values.

The next assay concerns C. tropicalis. Description: MIC testing (CLSI M27-A3). To be noted: for MIC Range: C. tropicalis strains, in µg/mL; for MIC50 / MIC90: C. tropicalis; for MIC50: inhibits 50% of strains; for MIC90: inhibits 90% of strains. The assay is classed as cell-based.
The test system of another assay is all Candida strains. The assay is described as follows: MFC determination, summary. The assay is classed as cell-based. To be noted: for MFC50: kills 50% of strains; for MFC90: kills 90% of strains.
The test system of another assay is Cr. neoformans strains. Description: MFC determination. To be noted: for MFC Range: Cr. neoformans strains, in µg/mL; for MFC50 / MFC90: Cr. neoformans; for MFC50: kills 50% of strains; for MFC90: kills 90% of strains. The assay is classed as cell-based, Cryptococcus neoformans.
Assay [2] relates to individual Aspergillus spp. (Table 14, species not named). The assay is described as follows: MIC testing (CLSI M38-A2), Table 14. The assay is classed as cell-based. To be noted: Aspergillus sp. of Table 14, caspofungin read as MEC; for MIC Range: in µg/mL; for MIC50: inhibits 50% of strains; for MIC90: inhibits 90% of strains.
The subject of assay [3] is Fusarium strains (Table 18). The assay is described as follows: MIC testing (CLSI M38-A2), Table 18. The assay is classed as cell-based, Fusarium spp. To be noted: for MIC50: inhibits 50% of strains; for MIC90: inhibits 90% of strains.
In a further assay the test system is Paecilomyces strains. Description: MFC determination. The assay is classed as cell-based, Paecilomyces spp. As to conditions: Paecilomyces strains (5).
The test system of assay [4] is Blastomyces dermatitidis, Coccidioides immitis, and Histoplasma capsulatum strains. The assay is classed as cell-based. To be noted: dimorphic fungal isolates; in µg/mL.
For assay [5], the system named is A. fumigatus AF91. Description: In vitro activity (MIC) against the infecting strain, Example 17. The assay is classed as cell-based, Aspergillus fumigatus. The procedure: Minimum Inhibitory Concentration: MIC testing was performed according to the Clinical and Laboratory Standards Institute (CLSI) M27-A3 and M38-A2 standards for the susceptibility testing of yeasts and filamentous fungi, respectively (Cryptococcus isolates were incubated for 72 h). For yeast strains, the incubation temperature and time were 35° C. and 24-48 h, respectively, and the inoculum size was 0.5-2.5×10^3 CFU/ml. For filamentous strains, the inoculum size was 0.4-5×10^4 CFU/ml, and the incubation time was strain and drug specific. RPMI 1640 was the test medium throughout, with the exception of the use of YNB for Cryptococcus. Inhibition endpoints for compound 1A were recorded at 50% and 100% after both 24 h and 48 h incubation; caspofungin results against Aspergillus strains were read as minimum effective concentrations (MEC), the lowest concentration that leads to small, rounded, compact growth as compared to the confluent growth of the control.

The test system of assay [6] is A. fumigatus AF91. Description: In vitro activity (MFC) against the infecting strain, Example 17. The assay is classed as cell-based, Aspergillus fumigatus. The procedure: Minimum Fungicidal Concentration: MFC determinations were performed according to the modifications previously described by Canton et al., Diagn. Microbiol. Infect. Dis., 45:203-206, 2003, and Ghannoum and Isham, Infectious Diseases in Clinical Practice, 15(4):250-253, 2007.
Specifically, the total contents of each clear well from the MIC assay were subcultured onto potato dextrose agar. To avoid antifungal carryover, the aliquots were allowed to soak into the agar and then were streaked for isolation once dry, thus removing the cells from the drug source. Fungicidal activity is defined as ≥99.9% reduction in the number of colony forming units (CFU)/ml from the starting inoculum count, while fungistatic activity is defined as <99.9% reduction. […] MIC and MFC values are considered to be equivalent if they are within 2 dilutions.

Where [7] appears, read: Aspergillus fumigatus, read-out: MFC.

In brackets after ≈: the same amount, converted by molar mass. Several values for one entry are separate records, joined by “and”; a condition that tells them apart may be missing. Equal values may be shown once. Read-outs that look alike come from different tables or passages of the source. Where only a bound is given, the exact number is not on record here.

Consider four molecules from patent US20230138395A1, “PHARMACEUTICAL COMPOSITIONS OF A THERAPEUTIC POLYENE MACROLIDE AND METHODS OF THEIR USE” (priority 2020, published 2023).

`C[C@@H]1[C@H](O)[C@@H](C)/C=C/C=C/C=C/C=C/C=C/C=C/C=C/[C@H](O[C@@H]2O[C@H](C)[C@@H](O)[C@H](N)[C@@H]2O)C[C@@H]2O[C@](O)(C[C@@H](O)C[C@@H](O)[C@H](O)CC[C@@H](O)C[C@@H](O)CC(=O)O[C@H]1C)C[C@H](O)[C@H]2C(=O)O` [Amphotericin B]: the MIC50 is 0.34 µg/mL (≈ 0.368 µM) in [1] (M19 medium); 0.04 µg/mL (≈ 0.0433 µM) in assay [1] (Müller-Hinton medium); 0.25 µg/mL (≈ 0.271 µM) against C. parapsilosis; 0.25 µg/mL (≈ 0.271 µM) against C. tropicalis; 1 µg/mL (≈ 1.08 µM) in [2]; 0.5 µg/mL (≈ 0.541 µM) in assay [3]. In addition, the “MFC Range” value against C. glabrata strains (in µg/mL) is 0.5-1; against all Candida strains (in µg/mL), 0.125-2; in the assay with Cr. neoformans strains, 0.25-2; in the assay on Paecilomyces strains it was more than 4 µg/mL. Besides, the MFC50 against C. glabrata strains, against all Candida strains and against Cr. neoformans strains was 0.5 µg/mL (≈ 0.541 µM) in each case. In addition, the MFC90 in the assay with C. glabrata strains, with all Candida strains and with Cr. neoformans strains was 1 µg/mL (≈ 1.08 µM) each time. Also, the “MIC Range” value in the assay with C. parapsilosis (in µg/mL) was 0.125-1; against C. tropicalis, 0.25-0.5; in assay [2], 0.25-2; in assay [4], <0.03-0.125. Besides, the MIC90 stood at 0.5 µg/mL (≈ 0.541 µM) against C. parapsilosis, 0.5 µg/mL (≈ 0.541 µM) with C. tropicalis, 1 µg/mL (≈ 1.08 µM) in assay [2] and 2 µg/mL (≈ 2.16 µM) in [3]. The molecule also yielded an MIC against A. fumigatus AF91 [5] of 2 µg/mL (≈ 2.16 µM). This molecule registered an MFC against A. fumigatus AF91 [6] of 16 µg/mL (≈ 17.3 µM).
As to `CC[C@H](C)C[C@H](C)CCCCCCCCC(=O)N[C@H]1C[C@@H](O)[C@@H](NCCN)NC(=O)[C@@H]2[C@@H](O)CCN2C(=O)[C@H]([C@H](O)CCN)NC(=O)[C@H]([C@H](O)[C@@H](O)c2ccc(O)cc2)NC(=O)[C@@H]2C[C@@H](O)CN2C(=O)[C@H]([C@@H](C)O)NC1=O` [Caspofungin, caspofungin], the MFC50 was 1 µg/mL (≈ 0.915 µM) with C. glabrata strains, 16 µg/mL (≈ 14.6 µM) in the assay on all Candida strains and more than 32 µg/mL in the assay on Cr. neoformans strains. Also, the MFC90 was 32 µg/mL (≈ 29.3 µM) against C. glabrata strains, more than 32 µg/mL against all Candida strains and more than 32 µg/mL with Cr. neoformans strains. The MFC was 32 (3×) and 16 and >32 in the assay with C. glabrata strains (listed as Cas); more than 16 µg/mL with A. fumigatus AF91 [6] (setting [7]). Further, the “MIC Range” value was 0.25-2 against C. parapsilosis (in µg/mL), 0.06-2 with C. tropicalis, 0.125-2 in [2] and 0.03-0.5 in assay [4]. Also, the MIC50 against C. parapsilosis is 0.5 µg/mL (≈ 0.457 µM); in the assay on C. tropicalis, 0.25 µg/mL (≈ 0.229 µM); in assay [2] it was 0.125 µg/mL (≈ 0.114 µM); in assay [3], more than 32 µg/mL. Moreover, the MIC90 is 2 µg/mL (≈ 1.83 µM) in the assay with C. parapsilosis, 0.5 µg/mL (≈ 0.457 µM) against C. tropicalis, 0.25 µg/mL (≈ 0.229 µM) in assay [2] and more than 32 µg/mL in [3]. Moreover, the MIC with C. parapsilosis (in µg/mL) was found to be 2; with A. fumigatus AF91 [5] (Aspergillus fumigatus, minimum effective concentration, read-out: MIC read as MEC), 0.25 µg/mL (≈ 0.229 µM).
Consider `OC(Cn1cncn1)(Cn1cncn1)c1ccc(F)cc1F` [Fluconazole, fluconazole], for which the “MFC Range” value in the assay with C. glabrata strains (in µg/mL) was more than 64; in the assay with Cr. neoformans strains it was 2; with Paecilomyces strains, more than 64 µg/mL. Further, the MFC50 was more than 64 µg/mL in the assay with C. glabrata strains, more than 32 µg/mL against all Candida strains and more than 64 µg/mL against Cr. neoformans strains. Besides, the MFC90 is more than 64 µg/mL against C. glabrata strains, more than 32 µg/mL in the assay with all Candida strains and more than 64 µg/mL against Cr. neoformans strains. Also, the MFC against C. glabrata strains (in µg/mL) is listed as more than 64. Further, the MIC50 was 0.5 µg/mL (≈ 1.63 µM) against C. parapsilosis, 0.25 µg/mL (≈ 0.816 µM) in the assay with C. tropicalis, more than 64 µg/mL in [2] and more than 32 µg/mL in assay [3]. Moreover, the MIC90 was 0.5 µg/mL (≈ 1.63 µM) in the assay on C. parapsilosis, 0.5 µg/mL (≈ 1.63 µM) in the assay with C. tropicalis, more than 64 µg/mL in [2] and more than 32 µg/mL in assay [3]. Moreover, the MIC in the assay with C. parapsilosis (listed as Flu, in µg/mL) was 0.25 and 0.5 and 1. For the same molecule, the “MIC Range” value in the assay on C. tropicalis is recorded as 0.25-2; in [3] (in µg/mL) it was more than 32.
As for `C[C@@H](c1ncncc1F)[C@](O)(Cn1cncn1)c1ccc(F)cc1F` [Voriconazole, voriconazole], in the assay with C. glabrata strains (in µg/mL), the “MFC Range” value is on record as more than 32. For the same molecule, the MFC50 against C. glabrata strains was more than 32 µg/mL; against all Candida strains it was more than 32 µg/mL; against Cr. neoformans strains it was more than 0.5 µg/mL. For the same molecule, the MFC90 is more than 32 µg/mL in the assay on C. glabrata strains, more than 32 µg/mL in the assay on all Candida strains and more than 0.5 µg/mL with Cr. neoformans strains. Also, the MFC against C. glabrata strains (in µg/mL) is more than 32; with A. fumigatus AF91 [6] (setting [7]) it was more than 8 µg/mL. For the same molecule, the MIC50 with C. parapsilosis was less than 0.06 µg/mL; with C. tropicalis, 0.06 µg/mL (≈ 0.172 µM); in assay [2], 1 µg/mL (≈ 2.86 µM); in [3] it was 16 µg/mL (≈ 45.8 µM). Besides, the MIC90 against C. parapsilosis is 0.06 µg/mL (≈ 0.172 µM); against C. tropicalis it was 0.06 µg/mL (≈ 0.172 µM); in [2], 4 µg/mL (≈ 11.5 µM); in [3] it was more than 16 µg/mL. Further, the MIC in the assay with C. parapsilosis (listed as Vor) is 0.06 (2×) and >32; in the assay on A. fumigatus AF91 [5] (Aspergillus fumigatus, read-out: MIC) it was 1 µg/mL (≈ 2.86 µM). In addition, the “MIC Range” value in the assay with C. tropicalis is recorded as <0.06-1; in assay [2], 0.06-8; in assay [4], <0.03-0.125.
